Data set [1] deals with db/db mice. The data set can be described thus: Serum pyruvate in db/db mice. Type of data set: in vivo. The note with it: vs db-Veh. As for the experimental part: Serum pyruvate enzymatic activity. Serum pyruvate levels were measured using the pyruvate assay kit (Sigma-Aldrich, MO, USA) as per manufacturer's protocol. Briefly, 5 μL of the serum samples were added to each well along with the pyruvate assay buffer, probe solution and the enzyme mix, and incubated for 30 min at RT.

The subject of data set [2] is Nampt+/− and littermate WT mice. The data set can be described thus: Glucose tolerance test in Nampt+/- and littermate WT mice. Type of data set: in vivo. Conditions: vs vehicle.
A further data set concerns RAW264.7 cells. As to the kind of experiment: Morphology and number of activated cells in LPS-induced RAW264.7 macrophage. The class given is cell-based. The note with it: LPS 1 μg/ml + P7C3 1 μM. The procedure:
FIGS. 3A-3E show morphology and number of activated cells in LPS-induced RAW264.7 macrophage in vitro. RAW264.7 cells were cultured in complete medium (FIG. 3A) or contained with P7C3 (FIG. 3B, 1 μM), LPS (FIG. 3C, 1 μg/ml), and LPS+P7C3 (FIG. 3D) for […]. The photo was taken under inverted microscopy (Rebel, ECHO) at 20× mag. The elongated and pseudopod shape of cells were considered as activated (yellow star), but the small and round shape of cells was considered as inactivated (yellow arrow). […] The statistical analysis was performed using two-way ANOVA with Tukey's multiple comparisons test in GraphPad Prism 8.4.3, and p≤0.05 was considered statistically significant.

In data set [3] the test system is C57BL6 mice tibialis anterior muscle. As to the kind of experiment: BaCl2 induced tibialis anterior muscle injury in mice. The class given is in vivo. As for the experimental part: Saline or 50 μl of 1% BaCl2 was injected in belly region of the muscle to induce inflammation. Muscle damage was assessed by H&E staining at day 7. The percentage of fibers recovered in higher in P7C3 treated group compared with saline treated group (FIG. 1B). The centrally placed nuclei were higher in P7C3 treated group with 3 or higher number of nuclei (FIG. 1C).
P7C3 administration (1 wk, 5 mg/kg bodyweight/day, i.p.) rescued tibialis anterior muscle injury induced by BaCl2 in mice. Administration of P7C3 increased frequency of myofiber number and fusion index as noted by increased centrally-nucleated fibers (FIGS. 1A-1C). Overall, these show the use P7C3, and the efficacy of P7C3 as a drug for muscle repair.

The test system of data set [4] is db/db mice. As to the kind of experiment: Electrocardiography in db/db mice. Type of data set: in vivo. The note with it: 10 mg/kg/day i.p., 4 weeks, vs vehicle. The procedure: Electrocardiography (ECG). Mouse ECG recordings were obtained utilizing 2-3% isoflurane/oxygen anesthesia in lead II configuration. ECGs were acquired for a total duration of 15 min, with 1 min recordings obtained at 5-minute intervals. Heart rate was monitored, while ECG traces were acquired using PowerLab system operated with LabChart 7.2 software (AD Instruments, UK). Data were analyzed offline using the ECG module of LabChart 7.2 software, as reported elsewhere. The intervals (ms) of QTc, JT, and ST elevation (mV) were measured. QT interval was measured from the start of the Q peak to the point where the T wave returns to the isoelectric baseline (TP baseline), and heart rate corrected QT (QTc) interval was obtained using the formula (QTc=QT/(RR/100)^1/2).

For another data set, the target named is T1, Nampt (Mus musculus, UniProt Q99KQ4).
T1 construct: from tissue; host or cells: whole heart homogenate of db/db mice
T1 sequence (Q99KQ4 whole entry): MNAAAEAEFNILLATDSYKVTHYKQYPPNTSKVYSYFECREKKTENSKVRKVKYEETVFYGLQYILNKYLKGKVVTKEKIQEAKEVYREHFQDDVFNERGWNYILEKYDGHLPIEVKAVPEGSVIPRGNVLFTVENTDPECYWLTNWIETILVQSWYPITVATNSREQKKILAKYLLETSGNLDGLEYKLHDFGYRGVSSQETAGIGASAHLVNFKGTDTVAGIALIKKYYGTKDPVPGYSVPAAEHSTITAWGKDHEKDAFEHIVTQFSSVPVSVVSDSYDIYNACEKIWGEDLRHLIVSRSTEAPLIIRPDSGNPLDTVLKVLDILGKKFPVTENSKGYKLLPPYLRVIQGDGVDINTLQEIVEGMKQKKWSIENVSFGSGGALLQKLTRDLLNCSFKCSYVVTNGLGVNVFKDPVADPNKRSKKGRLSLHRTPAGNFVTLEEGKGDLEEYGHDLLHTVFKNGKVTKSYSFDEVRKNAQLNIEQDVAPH
As to the kind of experiment: Cardiac Nampt enzymatic activity in db/db mice. The note with it: 10 mg/kg body weight/day, i.p., four-week, vs vehicle. The class given is in vivo. The text has this: Nampt enzymatic activity.

In the next data set the test system is C2C12 cells. As to the kind of experiment: MTT cytotoxicity study in C2C12 cells. The class given is cell-based, mouse. As for the experimental part:
Cytotoxicity study. The cytotoxicity of P7C3 nanoparticles (P7C3 NP), and the skeletal muscle-specific aptamer-based targeted P7C3 nanoparticles (P7C3 NP Apt) were determined using the MTT assay in C2C12 cells and was compared with the P7C3 solution, DMSO and control media. Briefly, the mouse C2C12 myoblasts were seeded at a seeding density of 10,000 cells/well in three 96-well plates (Corning, N.Y., USA) in 100 μl of growth medium, i.e., DMEM F12 supplemented with 10% FBS, and 1% P/S and were allowed to grow for 24, 48, and 72 h after an initial attachment period of 24 h, which was considered as time 0. […] The 0 nM concentration had the solvent vehicle control DMSO, in which the drugs P7C3, 7C3 NPs, and P7C3 NPs Apt were dissolved. The MTT reagent solution (1 mg/mL) was added to each well after 24, 48, and 72 h of cell proliferation and the assay was performed according to the manufacturer's protocol (Thermo Fisher Scientific CyQUANT™ MTT Cell Viability Assay kit, USA). The spectrophotometer reading was measured at 540 nm wavelength using a Synergy H1 Hybrid Multi-Mode Reader. Cell viability was calculated and plotted, considering the optical density of solvent vehicle control DMSO wells as 100% viable.

Where [5] appears, read: mice, 1 wk, 5 mg/kg bodyweight/day, i.p.

Consider `OC(CNc1ccccc1)Cn1c2ccc(Br)cc2c2cc(Br)ccc21` (stereo not drawn) [P7C3, 3,6-Dibromo-a-[(phenylamino)methyl]-9H-carbazole-9-ethanol], for which the serum pyruvate levels entry with db/db mice [1] was “significantly high”. For the same compound, the “GTT circulating blood glucose levels” value in data set [2] (Nampt littermate WT mice, single dose 10 mg/kg i/p) is given as “significant decrease”. For the same compound, the “GTT percent AUC” value in data set [2] (Nampt littermate WT mice) is given as “significant decrease”. In addition, the “GTT blood glucose levels” value in data set [2] (Nampt+/− mice, single dose 10 mg/kg i/p) was “did not show any significant effect”. The “GTT percent AUC” value in data set [2] (Nampt+/− mice) is “no significant differences”. For the same compound, the “number of activated RAW264.7 cells” value in the data set with RAW264.7 cells (vs LPS) is on record as “significantly decreased”. Also, the “non-activated RAW264.7 cells” value in the data set on RAW264.7 cells (vs LPS group) is “significantly higher”. Also, the “percentage of fibers recovered” value in data set [3] (H&E staining at day 7, vs saline treated group) was “higher”. The “centrally placed nuclei (3 or higher number of nuclei)” value in data set [3] (day 7, vs saline treated group) is “higher”. Also, in data set [3] (setting [5]), the “frequency of myofiber number” value is “increased”, the “fusion index (centrally-nucleated fibers)” value was “increased” and the “tibialis anterior muscle injury induced by BaCl2” value is “rescued”. Besides, in the data set with db/db mice [4], the JT interval result is reported as “significantly attenuated”, the QTc interval entry was “significantly attenuated” and the ST elevation entry was “significantly attenuated”. The “cardiac Nampt activity” value at Nampt is recorded as “significantly increased”. Further, the “cytotoxicity (MTT cell viability)” value with C2C12 cells (0, 10, 500, 1000 nM, 24, 48, 72 h) is “not toxic”. In addition, the cell viability result in the data set with C2C12 cells (10 nM, 72 h, vs control cells) is listed as “significantly higher”.

(Values after patent publication US20220370636A1, “NICOTINAMIDE ADENINE DINUCLEOTIDE ACTIVATOR AND USE THEREOF” (University of South Florida, priority 2021, published 2022).)
